Common to all, as to assay type: functional
In one assay the test system is P388. The assay can be described thus: Growth inhibition of mouse P388 cells. Particulars: read-out: ED50 (the source's name).
The nature of assay [1]: Antitumor activity against mouse MHEC5T cells xenografted in SCID mouse assessed as reduction in tumor blood flow at 100 mg/kg after 24 hrs. Also on record: scale not given: the % may be the effect or the level left.
The nature of assay [2]: Antitumor activity against mouse MHEC5T cells xenografted in SCID mouse assessed as reduction in tumor blood flow at 100 mg/kg after 1 hrs. Also on record: scale not given: the % may be the effect or the level left.
The nature of assay [3]: Antitumor activity against mouse MHEC5T cells xenografted in SCID mouse assessed as reduction in tumor blood flow at 100 mg/kg after 72 hrs. More on the design: scale not given: the % may be the effect or the level left.

Values after ≈ are worked out from the molar mass of the structure shown.

With `COc1cc2nc3c(/C=C\c4cc(OC)c(OC)c(OC)c4)ccc(OC)c3nc2cc1OC`, the EC50 with P388 worked out at 0.2 µg/mL (≈ 0.432 µM). Same read-out and setting: as for `COc1cc(/C=C\c2ccc(OC)c3nc4ccccc4nc23)cc(OC)c1OC`, the figure is 0.2 µg/mL (≈ 0.497 µM). As for `COc1cc(/C=C\c2ccc(OC)c(OP(=O)([O-])[O-])c2OP(=O)([O-])[O-])cc(OC)c1OC.[Na+].[Na+].[Na+].[Na+]`, the Activity in assay [1] worked out at 90%; in assay [2], 50%; in assay [3], 27%.

Values taken from ChEMBL document CHEMBL1156654, “Antineoplastic agents. 552. Oxidation of combretastatin A-1: trapping the o-quinone intermediate considered the metabolic product of the corresponding phosphate prodrug” (2008).
